From PMC12851022, “Targeting the Spliceosomal Protein USP39 Through Allosteric Ligands and PROTAC‐Induced Degradation” (Angewandte Chemie (International Ed. in English), 2025)

Columns and labels:
Format in all cases: cell-based
USP39 [1] = target: T1, USP39 (Homo sapiens, UniProt Q53GS9); experiment: Western blot of USP39 levels in HeLa-WT cells; design: endogenous in cells; host or cells: HeLa-WT; conditions: MG132 0.25 µM, 24 h ST
T1 sequence (Q53GS9 1-565): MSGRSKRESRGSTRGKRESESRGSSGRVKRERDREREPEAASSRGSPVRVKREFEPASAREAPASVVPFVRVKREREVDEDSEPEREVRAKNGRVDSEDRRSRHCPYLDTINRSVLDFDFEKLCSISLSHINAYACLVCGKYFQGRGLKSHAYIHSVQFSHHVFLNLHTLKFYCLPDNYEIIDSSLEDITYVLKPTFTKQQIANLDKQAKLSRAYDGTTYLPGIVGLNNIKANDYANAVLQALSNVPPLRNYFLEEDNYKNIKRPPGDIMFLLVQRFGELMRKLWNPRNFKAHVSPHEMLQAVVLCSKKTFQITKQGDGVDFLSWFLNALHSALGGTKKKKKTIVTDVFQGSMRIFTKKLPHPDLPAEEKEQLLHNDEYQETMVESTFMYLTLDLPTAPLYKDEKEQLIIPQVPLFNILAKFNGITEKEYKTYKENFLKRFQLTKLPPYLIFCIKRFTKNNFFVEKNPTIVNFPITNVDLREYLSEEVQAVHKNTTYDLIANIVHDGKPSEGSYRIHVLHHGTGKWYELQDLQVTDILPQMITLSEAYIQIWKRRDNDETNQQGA
Protocol: (§1) Figure 4 Effective and selective degradation of USP39 in cells by USP39‐PROTACs. a) Optimization of cellular degradation assay in HeLa cells transiently overexpressing USP39‑OFP (HeLa‐USP39‐OFP). […] GAPDH was used as a loading control. g) Proteasome dependence of USP39 degradation. HeLa‐WT cells were co‐treated with MG132 (0.25 µM) or DMSO control and USP39_PROTAC_V1 for 24 h ST. h) Representative immunofluorescence images of HeLa‐USP39_OFP cells treated with DMSO (NT), USP39_PROTAC_V1 (10 nM, 24 h), or USP39_PROTAC_V1 + MLN4924 (1 µM), stained for USP39 (red) and nuclei (blue). i) Quantification of USP39 degradation by fluorescence microscopy, showing DC50 values of 13 nM without MLN4924 (orange) and 204 nM with MLN4924 (blue) (MLN4924 = 5 uM). j) VHL‐dependence of PROTAC‐induced degradation. Schematic of PROTAC recruitment to VHL via hydroxyl‐proline interactions (His115, Ser111). Western blot comparing USP39 levels in VHL WT and VHL KO HeLa cells treated with USP39_PROTAC_V1. k) Fluorescence assay in HEK293T cells co‐expressing USP39‑OFP and either VHL_WT‑EGFP or VHL_m (Δ91–121). […] Comparison of untreated (NT) and USP39_PROTAC_V1–treated (10 nM, 24 h) samples. Percent spliced/unspliced (S/U) ratios are shown, reflecting USP39‐deficiency–associated splicing defects. Data represent at least four independent biological replicates. […]

USP39-OFP [2] = target: T2, USP39-OFP (Homo sapiens, UniProt Q53GS9); experiment: In-cell fluorescence degradation assay in HeLa-USP39-OFP cells; conditions: 50 nM, 16-h serum starvation, 24-h treatment
T2 construct: expressed in transfected cells; host or cells: HeLa
T2 sequence (P40337 whole entry, one chain of several, further chain): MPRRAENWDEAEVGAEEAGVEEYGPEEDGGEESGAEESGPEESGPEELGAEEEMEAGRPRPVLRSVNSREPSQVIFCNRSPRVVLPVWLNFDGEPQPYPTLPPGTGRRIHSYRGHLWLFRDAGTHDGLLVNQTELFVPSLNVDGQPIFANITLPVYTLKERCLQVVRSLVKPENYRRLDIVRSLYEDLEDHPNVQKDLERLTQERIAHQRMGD
T2 sequence (Q15370 whole entry partner, one chain of several): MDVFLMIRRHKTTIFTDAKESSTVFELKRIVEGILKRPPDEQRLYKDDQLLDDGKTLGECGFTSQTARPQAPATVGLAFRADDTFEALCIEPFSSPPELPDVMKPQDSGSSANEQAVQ
T2 sequence (Q15369 whole entry partner, one chain of several): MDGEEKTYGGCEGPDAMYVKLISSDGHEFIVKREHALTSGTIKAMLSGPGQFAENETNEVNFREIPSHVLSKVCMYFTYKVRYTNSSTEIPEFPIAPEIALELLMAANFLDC
Protocol: To evaluate the degradation efficacy of USP39_PROTACs, we adapted our recently developed cellular fluorescence assay in HeLa cells transiently overexpressing USP39‐OFP (HeLa‐USP39‐OFP).^[ [32] ^] Various experimental conditions were tested, including different initial seeding densities, the presence or absence of serum starvation, varying treatment durations, and compound concentration gradients (Figure 4a). Among these, a 16‐h serum starvation followed by a 24‐h treatment provided the most consistent and reproducible degradation of USP39 and was used for further experiments. Under these experimental conditions, a series of CRBN‐ and VHL‐based PROTACs were evaluated in an in‐cell fluorescence assay at a concentration of 50 nM to assess their ability to induce target protein degradation (Figure 4b, Table SI4). […]
Figure 4 Effective and selective degradation of USP39 in cells by USP39‐PROTACs. a) Optimization of cellular degradation assay in HeLa cells transiently overexpressing USP39‑OFP (HeLa‐USP39‐OFP). […] Western blot comparing USP39 levels in VHL WT and VHL KO HeLa cells treated with USP39_PROTAC_V1. k) Fluorescence assay in HEK293T cells co‐expressing USP39‑OFP and either VHL_WT‑EGFP or VHL_m (Δ91–121). […]

USP39-OFP [3] = target: T3, USP39-OFP (Homo sapiens, UniProt P40337+Q53GS9); experiment: Fluorescence degradation assay in HEK293T cells co-expressing USP39-OFP and VHL_WT-EGFP; conditions: VHL WT (VHL_WT-EGFP co-expressed)
T3 construct: expressed in transfected cells
T3 sequence (P40337 whole entry, one chain of several): as the sequence (P40337 whole entry, one chain of several, further chain) above
T3 sequence (Q15370 whole entry partner, one chain of several): as the sequence (Q15370 whole entry partner, one chain of several) above
T3 sequence (Q15369 whole entry partner, one chain of several): as the sequence (Q15369 whole entry partner, one chain of several) above
Protocol: as §1

USP39 / VHL = USP39 / VHL (Homo sapiens, UniProt P40337+Q53GS9); experiment: Co-immunoprecipitation of VHL with western blot for ubiquitin, USP39 and VHL; conditions: in the presence of MLN4924
Chain of USP39 / VHL (P40337 whole entry, one chain of several): as the sequence (P40337 whole entry, one chain of several, further chain) above
Chain of USP39 / VHL (Q15370 whole entry partner, one chain of several): as the sequence (Q15370 whole entry partner, one chain of several) above
Chain of USP39 / VHL (Q15369 whole entry partner, one chain of several): as the sequence (Q15369 whole entry partner, one chain of several) above

USP39 [4] = target: T1, USP39; experiment: Western blot of USP39 levels in VHL KO HeLa cells; design: endogenous in cells; host or cells: VHL-KO HeLa
Protocol: as §1

SMILES: Cc1ncsc1-c1ccc(CNC(=O)C2CC(O)CN2C(=O)C(NC(=O)CCOCCOCCOCCNC(=O)c2csc(Nc3ccc(Cl)cc3)n2)C(C)(C)C)cc1 (centres unmarked) [USP39_PROTAC_V1]
- USP39 degradation under co-treatment with proteasome inhibitor MG132 (USP39 [1]): markedly suppressed USP39 degradation
- USP39 degradation in in-cell fluorescence assay (USP39-OFP [2]): robust degradation activity
- DC50 (USP39-OFP [3]): 1 nM
- Co-immunoprecipitation from VHL pull-downs (USP39 / VHL): enrichment of USP39 and polymerized ubiquitin
- USP39 degradation in VHL-KO HeLa cells (USP39 [4]): significantly attenuated
